Results on 2 compounds are retold here after US6632820B1, “Pyrimidine compounds” (AstraZeneca AB, priority 1998, dated 2003).

The experiment addresses T1, CDK4/Cyclin D1 (Homo sapiens, UniProt P11802).
T1 construct: made in house; host or cells: SF21 insect cells (Spodoptera frugiperda), baculovirus co-infection, vector pVL1393
In words: CDK Inhibition Assay (Scintillation Proximity Assay, GST-Retinoblastoma substrate). It is filed as biochemical. The settings on record: in-vitro kinase assay, incorporation of [γ-33-P]-ATP into GST-Rb, 60 minutes at room temperature; read-out: CDK4 inhibitory activity IC50. Here is the method: The compounds were tested in an in vitro kinase assay in 96 well format using Scintillation Proximity Assay (SPA—obtained from Amersham) for measuring incorporation of [γ-33-P]-Adenosine Triphosphate into a test substrate (GST-Retinoblastoma). In each well was placed the compound to be tested (diluted in DMSO and water to correct, concentrations) and in control wells either p 16 as an inhibitor control or DMSO as a positive control. Approximately 0.5 μl of CDK4/Cyclin D1 partially-purified enzyme (amount dependent on enzyme activity) diluted in 25 μl incubation buffer was added to each well then 20 μl of GST-Rb/ATP/ATP33 mixture (containing 0.54 μg GST-Rb and 0.2 μM ATP and 0.14 μCi [γ-33-P]-Adenosine Triphosphate), and the resulting mixture shaken gently, then incubated at room temperature for 60 minutes. To each well was then added 150 μL stop solution containing (0.8 mg/well of Protein A-PVT SPA bead (Amersham)), 20 pM/well of Anti-Glutathione Transferase, Rabbit IgG (obtained from Molecular Probes), 61 mM EDTA and 50 mM HEPES pH 7.5 containing 0.05% sodium azide. The plates were sealed with Topseal-S plate sealers, left for two hours then spun at 2500 rpm, 1124×g., for 5 minutes. The plates were read on a Topcount for 30 seconds per well. […]

T1 sequence (P11802 whole entry): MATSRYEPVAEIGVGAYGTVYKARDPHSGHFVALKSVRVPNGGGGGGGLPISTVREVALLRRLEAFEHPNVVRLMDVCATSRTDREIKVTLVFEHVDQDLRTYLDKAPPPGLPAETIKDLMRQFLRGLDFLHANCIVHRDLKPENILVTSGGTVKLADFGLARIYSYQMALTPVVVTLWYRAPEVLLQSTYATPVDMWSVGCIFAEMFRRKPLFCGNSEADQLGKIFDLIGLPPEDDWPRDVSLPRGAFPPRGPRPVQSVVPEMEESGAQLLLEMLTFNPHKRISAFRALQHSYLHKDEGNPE
T1 sequence (P24385 whole entry partner): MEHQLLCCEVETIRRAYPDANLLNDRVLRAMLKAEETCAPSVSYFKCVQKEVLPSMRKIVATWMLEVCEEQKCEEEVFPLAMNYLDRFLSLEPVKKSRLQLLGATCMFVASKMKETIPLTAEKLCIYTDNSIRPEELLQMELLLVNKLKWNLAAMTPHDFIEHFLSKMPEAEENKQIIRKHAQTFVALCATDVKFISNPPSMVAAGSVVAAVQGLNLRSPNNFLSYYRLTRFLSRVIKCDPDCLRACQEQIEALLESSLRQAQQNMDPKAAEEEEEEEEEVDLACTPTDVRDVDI

Regarding `Cc1ccc(N(CC#N)c2cc(Nc3ccc(OCC(O)CN(C)C)cc3)ncn2)c(Br)c1` (centres unmarked) [Example 1, 4-{4-[3-(N,N-Dimethyl)amino-2-hydroxyproroxy]anilino}-6-(N-cyanomethyl-2-bromo-4-methylanilino)pyrimidine], the half-inhibitory concentration (IC50) (commonly the concentration that gives 50% inhibition) came to 110 nM.

On to `Cc1ccc(Cl)c(N(CC#N)c2cc(Nc3ccc(OCC(O)CN(C)C)cc3)ncn2)c1` (centres unmarked) [Example 2, 4-{4-[3-(N,N-Dimethyl)amino-2-hydroxylropoxy]anilino}-6-(N-cyanomethyl-2-chloro-5-methylanilino)pyrimidine], for which the half-maximal inhibitory concentration (IC50) was found to be 70 nM.
